Experimental data: BindingDB's records for doi:10.1016/S0960-894X(00)80255-3 (1991)

The compounds below were run against Tyrosine-protein kinase Lck (Homo sapiens, UniProt P06239) (assay: ChEBML_210745).
Text: Inhibitory concentration against phosphorylation of angiotensin I catalyzed by protein-tyrosine kinase p56lck

Chain of Tyrosine-protein kinase Lck (P06239 whole entry): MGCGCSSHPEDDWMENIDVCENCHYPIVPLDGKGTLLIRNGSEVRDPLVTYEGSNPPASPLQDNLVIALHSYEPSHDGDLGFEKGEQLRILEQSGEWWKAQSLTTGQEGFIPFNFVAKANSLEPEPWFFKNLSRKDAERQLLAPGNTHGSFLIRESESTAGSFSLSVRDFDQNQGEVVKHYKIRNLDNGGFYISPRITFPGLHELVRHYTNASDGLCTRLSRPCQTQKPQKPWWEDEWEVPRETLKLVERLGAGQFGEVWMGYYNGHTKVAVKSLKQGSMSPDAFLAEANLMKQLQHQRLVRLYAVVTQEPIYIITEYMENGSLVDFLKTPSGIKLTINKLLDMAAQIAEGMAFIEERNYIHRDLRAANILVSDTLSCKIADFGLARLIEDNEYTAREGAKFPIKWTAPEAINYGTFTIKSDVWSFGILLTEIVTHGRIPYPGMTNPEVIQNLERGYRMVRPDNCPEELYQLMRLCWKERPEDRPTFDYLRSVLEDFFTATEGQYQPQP

IC50	Compound
> 2900 µM	Brc1ccc(N=NCc2cccnc2)cc1 [N-(4-Bromo-phenyl)-N'-[1-pyridin-3-yl-meth-(E)-ylidene]-hydrazine]
310 µM	COc1ccc(N=NCc2cc(O)ccc2O)cc1 [2-[(4-Methoxy-phenyl)-hydrazonomethyl]-benzene-1,4-diol]
> 2490 µM	COc1ccc(CN=Nc2ccc(Br)cc2)cc1O [5-[(4-Bromo-phenyl)-hydrazonomethyl]-2-methoxy-phenol]
> 4060 µM	c1ccc(N=NCc2ccncc2)cc1 [N-Phenyl-N'-[1-pyridin-4-yl-meth-(E)-ylidene]-hydrazine]
310 µM	COc1ccc(N=NCc2cccc(O)c2O)cc1 [3-[(4-Methoxy-phenyl)-hydrazonomethyl]-benzene-1,2-diol]
> 2900 µM	Brc1ccc(N=NCc2ccncc2)cc1 [N-(4-Bromo-phenyl)-N'-[1-pyridin-4-yl-meth-(E)-ylidene]-hydrazine]
> 3320 µM	O=[N+]([O-])c1cccc(C/N=N/c2ccccc2)c1 [N-[1-(3-Nitro-phenyl)-meth-(E)-ylidene]-N'-phenyl-hydrazine]
> 3320 µM	O=[N+]([O-])c1ccc(C/N=N/c2ccccc2)cc1
> 2900 µM	Brc1ccc(N=NCc2ccccn2)cc1 [N-(4-Bromo-phenyl)-N'-[1-pyridin-2-yl-meth-(E)-ylidene]-hydrazine]
> 2510 µM	O=[N+]([O-])c1ccc(/N=N\Cc2cccc(O)c2O)c([N+](=O)[O-])c1 [3-[(2,4-Dinitro-phenyl)-hydrazonomethyl]-benzene-1,2-diol]
> 4060 µM	c1ccc(N=NCc2ccccn2)cc1 [N-Phenyl-N'-[1-pyridin-2-yl-meth-(E)-ylidene]-hydrazine]
> 2600 µM	Oc1ccc(Br)cc1CN=Nc1ccccc1 [4-Bromo-2-(phenyl-hydrazonomethyl)-phenol]
